# Test results as given in patent US20250049929A1, “NOVEL TETRAHYDROQUINOLINES AND PROTEOLYSIS TARGETING CHIMERA (PROTACS) COMPRISING THEM AS DEGRADERS OF SMARCA” (Boehringer Ingelheim International GmbH, priority 2021, published 2025).
# Molecular target: T1, SMARCA2 (Homo sapiens, UniProt P51531)
# T1 construct: endogenous in cells; host or cells: RKO cells (CRL-2577, ATCC)
# Assay: SMARCA2 degradation analysis by imaging in RKO cells (DC50 A2)
# Type: cell-based
# Details: tables 69, 70, 73, 76-78
# Method: (§1) Determination of SMARCA2 and SMARCA4 Degradation (DC50 A2 and A4 [nM])
# (§2) Protein Degradation Assays for SMARCA2 and SMARCA4
# (§3) For degradation analysis by imaging, 1250 RKO cells (CRL-2577, ATCC) per well were seeded into 60 μL DMEM (Sigma Aldrich) supplemented with 10% FBS (Hyclone) in 384-well flat bottom plates (CellCarrier Ultra, Perkin Elmer) and incubated at 37° C. and 5% CO2 in a humidified atmosphere overnight. Compounds were added the next day using an Access Labcyte Workstation with a Labcyte Echo 550 or 555 acoustic dispenser and incubated with the cells for 4 or 24 h. Cells were fixed by adding 25 μL fixation buffer (7.4% formaldehyde (Sigma Aldrich F8775), 0.2% Triton TX100 (Sigma Aldrich F93443) in PBS) for 15 minutes at room temperature. After aspirating the fixing solution, the cells were washed once with 25 μL PBS and 25 μL of Blocking Buffer (10% Goat Serum in PBS) were added to each well and incubated for 30 minutes. Cells were washed with PBS and incubated with 20 μL mouse anti-Smarca4 (BRG1) antibody (Cell Signaling #52251) or rabbit anti-Smarca2 (BRM) antibody (Sigma Aldrich HPA029981) in blocking solution (PBS with 10% FCS) for ca. 2-4 h at RT. For detection of the nuclei, 25 μL of 5 μg/mL Hoechst 33342 (stock 10 mg/mL in H2O; Invitrogen H1399) were added together with Alexa Fluor 647 goat anti-mouse IgG (Invitrogen A-21235) or Alexa Fluor 488 goat anti-rabbit IgG (Invitrogen A-11034) in blocking solution and incubated for 60 min at RT. The cell layer was washed with 25 μL PBS, the wells were filled with 25 μL PBS and the plates sealed with an adhesive sheet. The mean intensity at 488 or 647 nm in the nucleus was measured using an Opera Phenix Plus High-Content Screening System (Perkin Elmer), values were normalized to the background and DMSO control and DC50 values were calculated and analyzed using a four-parametric logistic model.
# T1 sequence (P51531 whole entry): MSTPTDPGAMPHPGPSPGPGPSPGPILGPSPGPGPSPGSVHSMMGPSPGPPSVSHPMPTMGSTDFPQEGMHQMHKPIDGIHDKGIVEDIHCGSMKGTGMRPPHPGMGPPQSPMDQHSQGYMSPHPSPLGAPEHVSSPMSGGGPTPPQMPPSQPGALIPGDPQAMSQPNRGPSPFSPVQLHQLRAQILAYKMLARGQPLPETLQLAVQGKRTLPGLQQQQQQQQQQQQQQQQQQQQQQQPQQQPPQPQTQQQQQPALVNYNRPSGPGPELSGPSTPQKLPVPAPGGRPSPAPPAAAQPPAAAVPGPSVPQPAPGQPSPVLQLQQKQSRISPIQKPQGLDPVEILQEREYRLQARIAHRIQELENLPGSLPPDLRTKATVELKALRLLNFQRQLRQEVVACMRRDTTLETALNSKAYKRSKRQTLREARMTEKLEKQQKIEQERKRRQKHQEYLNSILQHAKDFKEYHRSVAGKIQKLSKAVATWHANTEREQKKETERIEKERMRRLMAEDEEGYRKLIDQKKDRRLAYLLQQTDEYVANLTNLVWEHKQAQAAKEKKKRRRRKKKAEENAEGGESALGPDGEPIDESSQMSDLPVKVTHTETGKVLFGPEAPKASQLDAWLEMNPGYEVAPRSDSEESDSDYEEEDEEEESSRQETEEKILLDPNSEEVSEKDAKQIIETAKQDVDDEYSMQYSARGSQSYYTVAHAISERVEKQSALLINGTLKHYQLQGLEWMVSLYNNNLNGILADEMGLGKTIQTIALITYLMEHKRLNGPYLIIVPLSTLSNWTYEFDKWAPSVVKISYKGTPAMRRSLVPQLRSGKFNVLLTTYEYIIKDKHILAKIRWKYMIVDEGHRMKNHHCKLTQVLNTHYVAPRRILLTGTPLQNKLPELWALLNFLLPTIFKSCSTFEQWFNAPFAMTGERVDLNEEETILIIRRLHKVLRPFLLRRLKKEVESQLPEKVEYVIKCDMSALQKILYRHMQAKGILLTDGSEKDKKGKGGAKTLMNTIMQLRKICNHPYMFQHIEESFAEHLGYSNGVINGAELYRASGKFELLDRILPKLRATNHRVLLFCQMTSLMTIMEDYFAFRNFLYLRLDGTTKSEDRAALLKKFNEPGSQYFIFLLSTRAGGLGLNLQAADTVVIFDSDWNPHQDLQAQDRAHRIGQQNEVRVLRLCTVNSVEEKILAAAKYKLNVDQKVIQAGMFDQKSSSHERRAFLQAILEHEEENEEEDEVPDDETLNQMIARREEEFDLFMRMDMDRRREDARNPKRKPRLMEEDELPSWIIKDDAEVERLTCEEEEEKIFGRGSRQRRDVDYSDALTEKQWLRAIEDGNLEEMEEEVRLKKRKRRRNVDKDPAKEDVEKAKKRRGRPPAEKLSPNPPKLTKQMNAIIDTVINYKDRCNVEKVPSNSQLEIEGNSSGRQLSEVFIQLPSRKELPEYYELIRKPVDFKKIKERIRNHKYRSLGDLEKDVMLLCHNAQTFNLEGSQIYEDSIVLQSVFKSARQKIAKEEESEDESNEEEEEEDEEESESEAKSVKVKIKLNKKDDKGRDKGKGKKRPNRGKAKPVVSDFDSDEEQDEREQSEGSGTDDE
row,SMILES,DC50
1,Cc1ncsc1-c1ccc([C@H](CCCN2CCC(c3cc4c(cc3OCCOCCN3CCOCC3)n3c5cccc(Br)c5c(=O)nc3n4C3CCCC3)CC2)NC(=O)[C@@H]2C[C@@H](O)CN2C(=O)[C@@H](NC(=O)C2(F)CC2)C(C)(C)C)cc1 [Compound 42z],0.02 µM

# Molecular target: T2, SMARCA2BD (Homo sapiens, UniProt P51531)
# T2 construct: the SMARCA2BD prepared at 0.5-0.7 mg/mL in coupling buffer
# T2 sequence (P51531 1373-1493 isoform P51531-2 limits assumed): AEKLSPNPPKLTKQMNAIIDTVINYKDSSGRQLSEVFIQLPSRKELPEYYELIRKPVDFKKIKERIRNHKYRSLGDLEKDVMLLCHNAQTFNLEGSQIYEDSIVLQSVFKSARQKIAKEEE
# Assay: Binary SMARCA2 binding affinity determination (A2 binary): SMARCA2 SPR binding experiments
# Details: not given
# Method: Binary SMARCA2 Binding Affinity Determination (A2 Binary [nM]):
# SMARCA2 SPR Binding Experiments
# SPR experiments were performed on Biacore 8K or T200 instruments (GE Healthcare). Immobilization of target protein was carried out at 25° C. on a CM5 chip using amine coupling (EDC/NHS, GE Healthcare) in HBS-P+ running buffer, containing 2 mM TCEP, pH 7.4. […] The surface was deactivated using 1 M ethanolamine.
# All interaction experiments were performed at 6° C. in running buffer containing 20 mM TRIS, 150 mM potassium chloride, 2 mM magnesium chloride, 2 mM TCEP, 0.005% TWEEN 20, 1% dimethyl sulfoxide; pH 8.3. Sensorgrams from reference surfaces and blank injections were subtracted from the raw data prior to data analysis using Biacore T200 or Biacore 8K evaluation software. Sensorgrams recorded at different compound concentrations in multi-cycle experiments were fitted using a 1:1 interaction model, with a term for mass-transport included.
row,SMILES,Kd
1,"O=c1nc2n(C3CCCC3)c3cc(C4CCNCC4)ccc3n2c2cccc(Br)c12 [Compound 28a, 4-bromo-7-cyclopentyl-9-(4-piperidyl)benzimidazolo[1,2-a]quinazolin-5-one]",0.048 µM

# Same assay, conditions: binary SMARCA2 binding affinity; SPR at 6° C., pH 8.3; read-out: A2 binary
row,SMILES,Kd
1,CCn1c2cc(C3CCNCC3)c(OCCOCCOC)cc2n2c3cccc(Br)c3c(=O)nc12 [Compound 28k],0.045 µM
2,N[C@H]1CC[C@H](c2ccc3c(c2)n(C2CCCC2)c2nc(=O)c4c(Br)cccc4n32)CC1 [Compound 28m],0.029 µM
3,C[C@H]1CNCCN1c1ccc2c(c1)n(C1CCCC1)c1nc(=O)c3c(Br)cccc3n21 [Compound 28o],0.04 µM
4,C[C@@H]1CNCCN1c1ccc2c(c1)n(C1CCCC1)c1nc(=O)c3c(Br)cccc3n21 [Compound 28p],0.055 µM
5,O=c1nc2n(C3CCCC3)c3cc(N4CCNCC4)ccc3n2c2cccc(Br)c12 [Compound 28r],0.044 µM
6,O=c1nc2n(C3CCCC3)c3cc(N4C[C@@H]5C[C@H]4CN5)ccc3n2c2cccc(Br)c12 [Compound 28s],0.07 µM
7,O=c1nc2n(C3CCCC3)c3cc(C4CCNCC4)c(OC[C@@H]4CCCO4)cc3n2c2cccc(Br)c12 [Compound 28v],0.045 µM
8,COCCOCCOc1cc2c(cc1C1CCNCC1)n(C1CCCC1)c1nc(=O)c3c(Br)cccc3n21 [Compound 28y],0.05 µM
9,CC(C)(C)OC(=O)N1CCC(c2ccc3c(c2)n(C2CCCC2)c2nc(=O)c4c(N)cccc4n32)CC1 [Compound 30a],0.541 µM
10,CC(C)(C)OC(=O)Oc1cc2c(cc1C1CCN(C(=O)OC(C)(C)C)CC1)n(C1CCCC1)c1nc(=O)c3c(Br)cccc3n21 [Compound 33a],0.157 µM

# Molecular target: T3, SMARCA4 (Homo sapiens, UniProt P51532)
# T3 construct: endogenous in cells; host or cells: RKO cells (CRL-2577, ATCC)
# T3 sequence (P51532 whole entry): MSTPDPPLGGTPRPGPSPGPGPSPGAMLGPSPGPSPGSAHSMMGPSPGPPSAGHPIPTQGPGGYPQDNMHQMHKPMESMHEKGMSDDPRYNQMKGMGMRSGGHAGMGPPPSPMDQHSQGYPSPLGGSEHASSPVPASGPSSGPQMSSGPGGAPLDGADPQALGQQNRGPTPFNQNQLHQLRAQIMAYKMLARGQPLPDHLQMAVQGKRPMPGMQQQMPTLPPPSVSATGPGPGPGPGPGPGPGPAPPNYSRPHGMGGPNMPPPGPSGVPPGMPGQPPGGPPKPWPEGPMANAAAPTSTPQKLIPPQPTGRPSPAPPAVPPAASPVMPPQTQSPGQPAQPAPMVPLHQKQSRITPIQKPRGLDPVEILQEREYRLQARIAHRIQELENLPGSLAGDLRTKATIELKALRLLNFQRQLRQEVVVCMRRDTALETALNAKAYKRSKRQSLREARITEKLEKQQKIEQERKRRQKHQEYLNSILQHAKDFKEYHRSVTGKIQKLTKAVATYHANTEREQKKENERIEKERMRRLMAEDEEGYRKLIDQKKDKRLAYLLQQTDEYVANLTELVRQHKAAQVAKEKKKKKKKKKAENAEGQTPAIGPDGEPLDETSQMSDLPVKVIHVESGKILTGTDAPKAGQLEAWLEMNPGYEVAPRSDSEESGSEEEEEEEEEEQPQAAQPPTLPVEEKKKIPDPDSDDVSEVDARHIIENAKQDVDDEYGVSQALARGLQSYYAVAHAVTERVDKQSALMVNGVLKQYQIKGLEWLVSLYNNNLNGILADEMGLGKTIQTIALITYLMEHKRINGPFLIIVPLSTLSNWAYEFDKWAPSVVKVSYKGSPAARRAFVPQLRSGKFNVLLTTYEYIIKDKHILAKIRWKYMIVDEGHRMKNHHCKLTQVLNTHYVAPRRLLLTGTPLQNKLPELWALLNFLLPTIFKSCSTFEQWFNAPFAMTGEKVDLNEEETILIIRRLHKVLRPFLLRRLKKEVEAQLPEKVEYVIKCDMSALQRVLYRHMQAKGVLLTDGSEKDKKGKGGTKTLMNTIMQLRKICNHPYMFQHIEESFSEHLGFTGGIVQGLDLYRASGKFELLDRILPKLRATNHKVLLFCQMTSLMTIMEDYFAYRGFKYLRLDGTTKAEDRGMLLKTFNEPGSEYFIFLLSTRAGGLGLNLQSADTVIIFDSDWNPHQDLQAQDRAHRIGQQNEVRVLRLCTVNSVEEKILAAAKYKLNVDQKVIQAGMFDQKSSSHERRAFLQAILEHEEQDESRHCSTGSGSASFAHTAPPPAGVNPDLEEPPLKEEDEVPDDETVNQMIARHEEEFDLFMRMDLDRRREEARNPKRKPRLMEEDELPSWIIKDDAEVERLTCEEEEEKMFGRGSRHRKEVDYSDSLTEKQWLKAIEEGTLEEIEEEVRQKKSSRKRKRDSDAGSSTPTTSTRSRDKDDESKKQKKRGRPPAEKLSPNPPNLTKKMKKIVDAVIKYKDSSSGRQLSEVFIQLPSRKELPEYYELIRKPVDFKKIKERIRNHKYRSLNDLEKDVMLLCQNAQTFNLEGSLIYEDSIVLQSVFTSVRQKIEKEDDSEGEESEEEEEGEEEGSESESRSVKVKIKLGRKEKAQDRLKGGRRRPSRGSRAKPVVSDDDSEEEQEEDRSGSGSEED
# Assay: SMARCA4 degradation analysis by imaging in RKO cells (DC50 A4)
# Type: cell-based
# Details: tables 69, 70, 73, 76-78
# Method: as §1, §2, §3
row,SMILES,DC50
1,Cc1ncsc1-c1ccc([C@H](CCCN2CCC(c3cc4c(cc3OCCOCCN3CCOCC3)n3c5cccc(Br)c5c(=O)nc3n4C3CCCC3)CC2)NC(=O)[C@@H]2C[C@@H](O)CN2C(=O)[C@@H](NC(=O)C2(F)CC2)C(C)(C)C)cc1 [Compound 42z],0.041 µM
